In ChEMBL document CHEMBL4665837, “Soluble guanylate cyclase stimulators for the treatment of hypertension: Discovery of MK-2947” (Bioorg Med Chem Lett, 2020):

Experiments:
[1] = Half life in rat at 1 mg/kg, iv and 2 mg/kg, po; format: ADME, organism-based; settings: in vivo
[2] = Oral bioavailability in rat at 2 mg/kg; format: ADME, organism-based; settings: in vivo
[3] = Half life in Sprauge-Dawley rat; format: ADME; settings: Sprague-Dawley, in vivo
[4] = Total Plasma clearance in Sprauge-Dawley rat; format: ADME; settings: Sprague-Dawley
[5] = Oral bioavailability in Sprauge-Dawley rat; format: ADME, organism-based; settings: Sprague-Dawley, in vivo
[6] = AUCt/dose in Sprauge-Dawley rat; format: ADME; settings: in vivo
[7] = Clearance in rat at 1 mg/kg, iv and 2 mg/kg, po; format: ADME, organism-based; settings: in vivo
[8] = Drug level in SRH rat plasma a 1 mg/kg , po measured after 4 hrs; format: ADME, organism-based
[9] = Oral bioavailability in monkey at 2 mg/kg, po; format: ADME, organism-based, Macaca mulatta; settings: rhesus monkey, in vivo
[10] = Drug level in SRH rat plasma at 3 mg/kg , po measured after 4 hrs; format: ADME, organism-based
[11] = Clearance in monkey at 0.5 mg/kg, iv and 2 mg/kg, po; format: ADME, organism-based, Macaca mulatta; settings: rhesus monkey, in vivo
[12] = Drug level in SRH rat plasma at 0.3 mg/kg , po measured after 4 hrs; format: ADME, organism-based
[13] = Half life in monkey at 0.5 mg/kg, iv and 2 mg/kg, po; format: ADME, organism-based, Macaca mulatta; settings: rhesus monkey, in vivo
[14] = Oral bioavailability in dog at 10 mg/kg; format: ADME, organism-based, Canis lupus familiaris; settings: in vivo
[15] = Half life in rat at 2 mg/kg, po; format: ADME, organism-based; settings: in vivo
[16] = Half life in dog at 1 mg/kg, iv and 10 mg/kg, po; format: ADME, organism-based, Canis lupus familiaris; settings: in vivo
[17] = Clearance in dog at 1 mg/kg, iv and 10 mg/kg, po; format: ADME, organism-based, Canis lupus familiaris; settings: in vivo

COC(=O)N(C)c1c(N)nc(-c2nc(Cc3ccccc3F)n3ccccc23)nc1N
half-life [1]: 0.9 h
bioavailability [2]: 15%

COC(=O)N(C)c1c(N)nc(-n2nc(Cc3c(F)ccc(F)c3F)c3cc(Cl)ccc32)nc1N
half-life [3]: 3.6 h
clearance [4]: 0.9 mL/min/kg
bioavailability [5]: 51%
AUCt/dose [6]: 18 µM·kg·h/mg

COC(=O)N(C)c1c(N)nc(-n2nc(Cc3ccccc3F)c3ccccc32)nc1N
half-life [1]: 0.9 h
bioavailability [2]: 32%

COC(=O)N(C)c1c(N)nc(-n2nc(Cc3ccccc3F)c3cc(F)ccc32)nc1N
half-life [3]: 1.5 h
clearance [4]: 1.4 mL/min/kg
bioavailability [5]: 22%
AUCt/dose [6]: 4.6 µM·kg·h/mg

CC1(C)C(=O)Nc2nc(-n3nc(CCC(F)(F)F)c4cc(Cl)ccc43)nc(N)c21
clearance [7]: 29 mL/min/kg
concentration at 4 h [8]: 145 nM
bioavailability [9]: 63%
concentration at 4 h [10]: 392 nM
bioavailability [2]: 80%
clearance [11]: 34 mL/min/kg
concentration at 4 h [12]: 36 nM
half-life [13]: 1.4 h
bioavailability [14]: 21%
half-life [15]: 2.6 h
half-life [16]: 1.3 h
clearance [17]: 39 mL/min/kg

COC(=O)N(C)c1c(N)nc(-n2nc(Cc3c(F)ccc(F)c3F)c3ccccc32)nc1N
half-life [3]: 2.2 h
clearance [4]: 1.6 mL/min/kg
bioavailability [5]: 68%
AUCt/dose [6]: 15.3 µM·kg·h/mg

COC(=O)Nc1c(N)nc(-n2nc(Cc3c(F)ccc(F)c3F)c3cc(Cl)ccc32)nc1N
bioavailability [5]: 37%
AUCt/dose [6]: 25.2 µM·kg·h/mg

COC(=O)N(C)c1c(N)nc(-c2nc(Cc3ccccc3F)n3ncccc23)nc1N
half-life [1]: 0.6 h
bioavailability [2]: 4%
